Entries after “also recorded” stand apart in the source; their conditions may differ.
Columns and labels:
[1] = test system: PLS/HCC high risk genes in HBV-infected HepG2-NTCP cells; assay: Epigenetic inhibitors: 32-gene PLS/HCC risk signature in HBV-infected HepG2-NTCP cells; format: cell-based; conditions: only in HBV infected cells; C646 10 μM
Procedure: (§1) HBV infection was assessed at day 10 post-infection by qRT-PCR quantification of HBV pregenomic RNA (pgRNA) as described in (Verrier et al., Hepatology, 2015, 63: 35-48).
(§2) Transcriptional analyses. Ten days after HCV Jc1 and HBV infection or ethanol exposure, cultures were lysed using TRI-reagent (MRC) and RNA purified using the Directzol mini kit (Zymo Research). Gene expression profiling was performed using 250-500 ng total RNA by using either NCOUNTER Digital Analyzer system (NanoString) or high throughput qRT-PCR Biomark HD (Baker, Nature Meth., 2012, 9: 541-544) […]. Induction or suppression of HCC risk signature was determined by Gene Set Enrichment Analysis (GSEA), implemented in GenePattern genomic analysis toolkits.

HCV Jc1 = assay: HCV viral load in HCV Jc1-infected Huh7.5.1dif cells (qRT-PCR of intracellular HCV RNA); format: cell-based; conditions: for effect on HCV viral load: HCV-infected Huh7.5.1dif cells, at the concentrations that suppress the signature
Procedure: HCV Infection of Huh7.5.1^dif cells. Cell culture-derived HCVcc Jc1 (genotype 2a/2a) (Pietschmann et al., PNAS USA, 2006, 103: 7408-7413) were generated in Huh7.5.1 cells as previously described (Wakita et al., Nat. Med., 2005, 11: 791-796). HCV Jc1E2^FLAG was purified using anti-FLAG M2 affinity gel (Sigma-Aldrich, St.Louis, Mo., USA) as described (Merz et al., J. Biol. Chem., 2011, 286: 3018-3032). HCVcc infectivity was determined by calculating the 50% tissue culture infectious doses (TCID50) as previously described (Lindenbach et al., Science, 2005, 309: 623-626). Huh7.5.1^dif cells were infected with HCV Jc1 or HCV Jc1E2^FLAG. Cell culture supernatants from mock-electroporated cells or 100 μg/mL of FLAG peptide were used for control experiments. HCV infection was assessed by qRT-PCR of intracellular HCV RNA (Xiao et al., PLoS Pathog., 2014, 10: e1004128) as well as immunostaining using HCV E2-specific AP33 antibody as previously described (Krieger et al., Hepatology, 2010, 51: 1144-1157).

[2] = test system: HCC high-risk genes in human fibrotic liver tissue; assay: Organotypic ex vivo culture of surgically resected human fibrotic liver tissue slices, PLS/HCC risk signature by GSEA; format: cell-based; conditions: erlotinib 5 μM, pioglitazone 10 μM
Procedure: Liver Slices. Fresh liver tissue sections (300 μm-thick) were prepared from surgically resected fibrotic livers from HCC patients using Krumdieck Tissue Slicer MD6000 (Alabama Research and Development, Munford, Ala., USA).
Transcriptional Analyses. Liver cells were lysed in TRI-reagent (Molecular Research Center; Cincinnati, Ohio, USA), and RNA was purified using Direct-zol RNA MiniPrep (Zymo Research, Irvine, Calif., USA) according to manufacturer's instructions. RNA quantity and RNA quality were assessed using NanoDrop (Thermo Scientific, Waltham, Mass., USA) and Bioanalyzer 2100 ([…]) with a quality cut-off of RNA Integrity Number >8. […] HCC high risk gene expression was analyzed by qRT-PCR using specific TaqMan Gene Expression Assays (Life Technologies, Carlsbad, Calif., USA) or the ANXA3 and GPX2 primer sets previously described (Pan et al., Stem Cells, 2015, 33: 354-366 and Brault et al., Gut, 2014, 65: 44-54, respectively). The expression of GAPDH mRNA was analyzed as a reference gene using a specific TaqMan Gene Expression Assay (Life Technologies, Carlsbad, Calif., USA) or the RT2 qPCR Primer Assay (Qiagen, Hilden, Germany). Relative gene expression level was calculated by the ΔΔCt method as previously described (Schmittgen et al., Nat. Protoc., 2008, 3: 1101-1108). […]

[3] = test system: HCC risk signature in HCV Jc1-infected Huh7.5.1^dif cells; assay: HCC risk signature in HCV Jc1-infected Huh7.5.1dif cells after antiviral or EGFR/MAPK pathway inhibitor treatment; format: cell-based, human; conditions: three days treatment from day 7 post-infection
Procedure: HCV Infection of Huh7.5.1^dif cells. […] Huh7.5.1^dif cells were infected with HCV Jc1 or HCV Jc1E2^FLAG. […] HCV infection was assessed by qRT-PCR of intracellular HCV RNA (Xiao et al., PLoS Pathog., 2014, 10: e1004128) as well as immunostaining using HCV E2-specific AP33 antibody as previously described (Krieger et al., Hepatology, 2010, 51: 1144-1157).
Transcriptional Analyses. Liver cells were lysed in TRI-reagent (Molecular Research Center; Cincinnati, Ohio, USA), and RNA was purified using Direct-zol RNA MiniPrep (Zymo Research, Irvine, Calif., USA) according to manufacturer's instructions. RNA quantity and RNA quality were assessed using NanoDrop (Thermo Scientific, Waltham, Mass., USA) and Bioanalyzer 2100 (IIlumina, San Diego, Calif., USA) with a quality cut-off of RNA Integrity Number >8. […] Gene expression profiling was performed using 250-500 ng total RNA by using either NCOUNTER Digital Analyzer system (NanoString) or the HumanHT-12 beadarray (Illumina, San Diego, Calif., USA). HCC high risk gene expression was analyzed by qRT-PCR using specific TaqMan Gene Expression Assays (Life Technologies, Carlsbad, Calif., USA) or the ANXA3 and GPX2 primer sets previously described (Pan et al., Stem Cells, 2015, 33: 354-366 and Brault et al., Gut, 2014, 65: 44-54, respectively). The expression of GAPDH mRNA was analyzed as a reference gene using a specific TaqMan Gene Expression Assay (Life Technologies, Carlsbad, Calif., USA) or the RT2 qPCR Primer Assay (Qiagen, Hilden, Germany). Relative gene expression level was calculated by the ΔΔCt method as previously described (Schmittgen et al., Nat. Protoc., 2008, 3: 1101-1108).
Bioinformatics. Induction or suppression of HCC risk signature in HumanHT-12 beadarray (Illumina, San Diego, Calif., USA) data was determined as previously reported by using Nearest Template Prediction algorithm and Gene Set Enrichment Analysis (GSEA), implemented in GenePattern genomic analysis toolkits (Subramanian et al., PNAS USA, 2005, 102: 15545-15550; Hoshida, PLoS One, 2010, 5: e15543; Reich et al., Nat. Genet., 2006, 38: 500-501). Molecular pathway deregulations were determined in Molecular Signature Database (MSigDB, ver.4.0) (Liberzon et al., Bioinformatics, 2011, 27: 1739-1740) using GSEA (Subramanian et al., PNAS USA, 2005, 102: 15545-15550).

ERK1/2 = assay: Proteome Profiler Human Phospho-kinase Array in HCV-infected liver cells; format: cell-based; conditions: low inhibitor concentrations
Procedure: Proteomic Analyses. For proteomic analyses, Huh7.5.1^dif cells that had undergone DMSO-mediated differentiation, were infected with HCV Jc1E2^FLAG (TCID50=10^7/mL) as described above. On day 7, receptor tyrosine kinase (RTK) phosphorylation was assessed in cell lysates using the Human Phospho-RTK Array Kit as previously described (Lupberger et al., Nat. Med., 2011, 17: 589-595; and Zona et al., Cell Host Microbe, 2013, 13: 302-313). The effect of MAPK inhibitors on signaling was confirmed using the Proteome Profiler Human Phospho-kinase Array according to manufacturer's instructions (R&D Systems). Amounts of phospho-proteins were assessed using a horseradish peroxidase-conjugated pan-phospho-tyrosine-specific antibody (R&D Systems, Minneapolis, Minn., USA) followed by chemiluminescence detection (GE Healthcare, Cleveland, Ohio, USA) according to manufacturer's instructions. The relative dot-blot density of the phosphorylated proteins in HCV Jc1E2^FLAG infected samples compared to non-infected controls was quantified using Image J software (NIH) by elliptical selection of individual dots and measuring standard deviation and integrated density.

[4] = test system: PLS/HCC high risk genes in HCV-infected or ethanol exposed Huh7.5.1^dif cells or HBV-infected HepG2-NTCP cells; assay: Epigenetic inhibitors: 32-gene PLS/HCC risk signature in infected or ethanol-treated liver cells; format: cell-based, human; conditions: iBET 0.05 μM, WDR5-0103 100 μM
Procedure: HCV infection was assessed at day 10 by qRT-PCR of intracellular RNA as described (Xiao et al., PLoS pathogens. 2014, 10(5): e1004128).
as §1
Fresh medium containing ethanol and antibodies was replenished daily (Ye et al., Drug Alcohol Depend., 2010, 112: 107-116).
as §2

| Molecule | effect on HCV viral load (HCV Jc1) | HCC high-risk gene expression [3] | PLS/HCC high risk gene expression [4] | further results |
| --- | --- | --- | --- | --- |
| CC1=NN(c2ccc(C(=O)O)cc2)C(=O)/C1=C\c1ccc(-c2cc(C)c(C)cc2[N+](=O)[O-])o1 [C646] |  |  |  | PLS/HCC high risk genes [1]: suppressed |
| C#Cc1cccc(Nc2ncnc3cc(OCCOC)c(OCCOC)cc23)c1 [Erlotinib] | did not modify | suppressed |  | PLS / HCC high-risk genes in ex vivo liver tissue [2]: effectively suppress; also recorded: reverted |
| Nc1[nH]nc2nnc(-c3c(-c4ccccc4)nn4ccccc34)cc12 [Fr180204] | absent effects | suppressed |  | ERK1/2 phosphorylation (virus-induced MAPK signaling) (ERK1/2): reduced |
| COC(=O)c1ccc(N2CCN(C)CC2)c(NC(=O)c2cccc(OC)c2)c1 [WDR5-0103] |  |  | suppressed |  |
| Interferon-alpha 2a |  | partial suppression |  | decrease of viral load (HCV Jc1; HCV Jc1-infected Huh7.5.1dif cells, three days treatment from day 7, 10 IU/mL interferon-alpha 2a or 1 nM daclatasvir + 1 μM sofosbuvir): about 100 fold; HCC low-risk gene expression [3]: restoration |
| iBET |  |  | suppressed |  |
